Data: PubChem BioAssay (NCI)
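48-hour exposure; five concentrations; linearly interpolated endpoints. TGI: total growth inhibition.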

Columns and labels:
Experiment in all cases: inhibition of tumour cell growth, NCI panel, 48 h
MALME-3M melanoma = test system: MALME-3M melanoma
COLO 205 colon = test system: COLO 205 colon
SN12C renal = test system: SN12C renal
SF-268 CNS = test system: SF-268 CNS
M14 melanoma = test system: M14 melanoma
MDA-MB-231 breast = test system: MDA-MB-231 breast
A549 NSCLC = test system: A549 NSCLC
CCRF-CEM leukemia = test system: CCRF-CEM leukemia
A498 renal = test system: A498 renal
SNB-75 CNS = test system: SNB-75 CNS

Measured: TGI

COC(NC(N)=O)C(=O)O (stereo not given)
> 100 µM: all assays above
